In assay [1] the test system is AsPC-1 (K-Ras G12D). Briefly: Potency assay: pERK. Format: cell-based. The conditions noted are these: Homo sapiens, ASPC1, read-out: pERK EC50.
The subject of assay [2] is AsPC-1 (K-Ras G12D). Briefly: CellTiter-Glo cell viability assay. Type of assay: cell-based. Particulars: Homo sapiens, ASPC1, 120 h, read-out: AsPC-1 Cell Viability assay data IC50, K-Ras G12D, 5-day treatment. Summed up:
(§1)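 Percent-of-DMSO luminescence values (CellTiter-Glo, day 5, plates equilibrated ~30 minutes at ambient temperature) were curve-fitted using a 4-parameter logistic equation; compounds had been added straight into wells containing the cells.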

For a further assay, the system named is NCI-H358 (K-Ras G12C). Briefly: CellTiter-Glo cell viability assay. Format: cell-based. Particulars: Homo sapiens, NCI-H358, 120 h, read-out: H358 Cell Viability assay data IC50, K-Ras G12C, 5-day treatment. Summed up:
as §1

In another assay the target is KRAS G12D (Homo sapiens, UniProt P01116+P62937, G12D). Description: Ras-Raf disruption / FRET / MOA assay (BRAF RBD). The conditions noted are these: KRAS G12D FRET data IC50, Ras-Raf disruption, with Cyclophilin A. Type of assay: biochemical. The procedure, abridged:
(§2)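 Compound-induced Ras–Cyclophilin A ternary complex disrupting BRAF RBD binding, read as IC50 from reduced TR-FRET ratio relative to DMSO. Final: Ras-GMPPNP 12.5 nM, BRAF RBD 50 nM, Cyclophilin A 25 μM, top compound 30 μM (3-fold, 10 points); 3 h at 25 °C, then 1.5 h with detection antibodies.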

The target of a further assay is KRAS G12S (Homo sapiens, UniProt P01116+P62937, G12S). Briefly: Ras-Raf disruption / FRET / MOA assay (BRAF RBD). The conditions noted are these: KRAS G12S FRET data IC50, Ras-Raf disruption, with Cyclophilin A. Type of assay: biochemical. Summed up: as §2
A further assay deals with KRAS G12V (Homo sapiens, UniProt P01116+P62937, G12V). Briefly: Ras-Raf disruption / FRET / MOA assay (BRAF RBD). Format: biochemical. Particulars: KRAS G12V FRET data IC50, Ras-Raf disruption, with Cyclophilin A. The procedure, abridged:
as §2

A further assay concerns the target KRAS G13C (Homo sapiens, UniProt P01116+P62937, G13C). Briefly: Ras-Raf disruption / FRET / MOA assay (BRAF RBD). Format: biochemical. Particulars: KRAS G13C FRET data IC50, Ras-Raf disruption, with Cyclophilin A. Summed up: as §2
The target in another assay is KRAS G13D (Homo sapiens, UniProt P01116+P62937, G13D). Briefly: Ras-Raf disruption / FRET / MOA assay (BRAF RBD). Type of assay: biochemical. Particulars: KRAS G13D FRET data IC50, Ras-Raf disruption, with Cyclophilin A. The procedure, abridged:
as §2

The next assay deals with KRAS Q61H (Homo sapiens, UniProt P01116+P62937, Q61H). Briefly: Ras-Raf disruption / FRET / MOA assay (BRAF RBD). Format: biochemical. The procedure, abridged:
as §2

Another assay concerns the target KRAS WT (Homo sapiens, UniProt P01116+P62937). Description: Ras-Raf disruption / FRET / MOA assay (BRAF RBD). Format: biochemical. The conditions noted are these: KRAS WT FRET data IC50, Ras-Raf disruption, with Cyclophilin A. Summed up:
as §2

The next assay deals with NRAS G12C (Homo sapiens, UniProt P01111+P62937, G12C). Description: Ras-Raf disruption / FRET / MOA assay (BRAF RBD). Type of assay: biochemical. The conditions noted are these: NRAS G12C FRET data IC50, NRAS G12C. Summed up:
as §2

The next assay addresses NRAS Q61K (Homo sapiens, UniProt P01111+P62937, Q61K). Description: Ras-Raf disruption / FRET / MOA assay (BRAF RBD). Type of assay: biochemical. Summed up: as §2
The next assay deals with NRAS Q61R (Homo sapiens, UniProt P01111+P62937, Q61R). Description: Ras-Raf disruption / FRET / MOA assay (BRAF RBD). Format: biochemical. The procedure, abridged:
as §2

In another assay the target is NRAS WT (Homo sapiens, UniProt P01111+P62937). Briefly: Ras-Raf disruption / FRET / MOA assay (BRAF RBD). Format: biochemical. The procedure, abridged:
as §2

The target in the next assay is KRAS G12C (Homo sapiens, UniProt P01116+P62937, G12C). Briefly: Ras-Raf disruption / FRET / MOA assay (BRAF RBD). Format: biochemical. Particulars: KRAS G12C FRET data IC50, Ras-Raf disruption, with Cyclophilin A. The procedure, abridged: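 TR-FRET read-out after 1.5 h with anti-His Eu-W1024 (10 nM) and anti-GST APC (50 nM), following 3 h at 25 °C of compound (top 30 μM, 3-fold, 10 points) with 25 μM Cyclophilin A, 12.5 nM GMPPNP-loaded K-Ras G12C and 50 nM BRAF RBD; IC50 reported.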

The term EC50 denotes the concentration needed to bring the measured effect to its halfway point. A word on the IC50: it is the midpoint of a concentration-inhibition curve.

Sequence of KRAS G12V (P01116 1-169 isoform P01116-2 G12V limits assumed): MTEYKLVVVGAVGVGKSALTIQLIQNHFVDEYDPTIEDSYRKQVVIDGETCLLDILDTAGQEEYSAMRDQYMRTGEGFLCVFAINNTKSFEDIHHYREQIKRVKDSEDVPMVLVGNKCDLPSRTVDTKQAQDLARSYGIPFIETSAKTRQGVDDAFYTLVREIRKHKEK
Sequence of KRAS G12V (P62937 whole entry): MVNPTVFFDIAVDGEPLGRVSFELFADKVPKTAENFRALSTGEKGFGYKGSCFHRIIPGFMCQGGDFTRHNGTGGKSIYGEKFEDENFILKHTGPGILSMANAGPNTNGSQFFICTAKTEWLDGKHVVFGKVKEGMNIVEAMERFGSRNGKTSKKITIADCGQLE
Sequence of NRAS WT (P01111 whole entry): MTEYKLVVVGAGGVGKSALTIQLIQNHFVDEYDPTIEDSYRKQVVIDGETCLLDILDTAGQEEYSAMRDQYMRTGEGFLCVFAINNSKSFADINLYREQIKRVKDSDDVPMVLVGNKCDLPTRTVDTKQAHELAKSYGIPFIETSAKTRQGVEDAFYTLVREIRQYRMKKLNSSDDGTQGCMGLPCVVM
Sequence of NRAS WT (P62937 whole entry): as the sequence (P62937 whole entry) above
Sequence of KRAS Q61H (P01116 1-169 isoform P01116-2 Q61H limits assumed): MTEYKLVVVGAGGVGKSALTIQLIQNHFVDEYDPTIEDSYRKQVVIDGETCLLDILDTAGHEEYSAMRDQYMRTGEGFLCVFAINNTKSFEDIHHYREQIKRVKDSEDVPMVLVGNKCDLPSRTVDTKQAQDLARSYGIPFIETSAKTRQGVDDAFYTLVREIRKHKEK
Sequence of KRAS Q61H (P62937 whole entry): as the sequence (P62937 whole entry) above
Sequence of NRAS Q61K (P01111 whole entry Q61K): as the sequence (P01111 whole entry) above, with Q61K counted along it
Sequence of NRAS Q61K (P62937 whole entry): as the sequence (P62937 whole entry) above
Sequence of KRAS G12C (P01116 1-169 isoform P01116-2 G12C limits assumed): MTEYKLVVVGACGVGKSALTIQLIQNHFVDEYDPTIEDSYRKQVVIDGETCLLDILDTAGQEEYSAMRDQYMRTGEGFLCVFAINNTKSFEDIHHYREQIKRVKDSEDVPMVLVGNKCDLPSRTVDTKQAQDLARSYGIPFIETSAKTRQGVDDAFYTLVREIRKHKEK
Sequence of KRAS G12C (P62937 whole entry): as the sequence (P62937 whole entry) above
Sequence of KRAS WT (P01116 1-169 isoform P01116-2 limits assumed): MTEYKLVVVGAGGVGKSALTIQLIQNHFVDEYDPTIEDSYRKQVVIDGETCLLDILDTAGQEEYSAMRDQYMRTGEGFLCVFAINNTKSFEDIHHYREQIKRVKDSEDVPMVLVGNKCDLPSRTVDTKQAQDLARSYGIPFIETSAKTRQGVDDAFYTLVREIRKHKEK
Sequence of KRAS WT (P62937 whole entry): as the sequence (P62937 whole entry) above
Sequence of NRAS Q61R (P01111 whole entry Q61R): as the sequence (P01111 whole entry) above, with Q61R counted along it
Sequence of NRAS Q61R (P62937 whole entry): as the sequence (P62937 whole entry) above
Sequence of KRAS G13D (P01116 1-169 isoform P01116-2 G13D limits assumed): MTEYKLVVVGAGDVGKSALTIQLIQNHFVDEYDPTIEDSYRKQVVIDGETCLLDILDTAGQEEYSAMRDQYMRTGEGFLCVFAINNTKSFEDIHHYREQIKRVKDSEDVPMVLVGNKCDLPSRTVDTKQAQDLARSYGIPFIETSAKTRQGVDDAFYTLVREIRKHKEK
Sequence of KRAS G13D (P62937 whole entry): as the sequence (P62937 whole entry) above
Sequence of KRAS G13C (P01116 1-169 isoform P01116-2 G13C limits assumed): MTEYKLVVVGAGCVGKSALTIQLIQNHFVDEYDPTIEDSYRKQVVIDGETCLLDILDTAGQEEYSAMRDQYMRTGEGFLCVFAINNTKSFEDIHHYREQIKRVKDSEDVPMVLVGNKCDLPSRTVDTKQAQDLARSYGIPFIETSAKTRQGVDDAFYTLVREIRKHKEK
Sequence of KRAS G13C (P62937 whole entry): as the sequence (P62937 whole entry) above
Sequence of KRAS G12S (P01116 1-169 isoform P01116-2 G12S limits assumed): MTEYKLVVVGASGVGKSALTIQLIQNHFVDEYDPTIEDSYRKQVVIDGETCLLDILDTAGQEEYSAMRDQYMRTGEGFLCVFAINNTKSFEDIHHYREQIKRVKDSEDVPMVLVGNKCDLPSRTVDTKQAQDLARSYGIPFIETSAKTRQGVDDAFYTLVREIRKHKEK
Sequence of KRAS G12S (P62937 whole entry): as the sequence (P62937 whole entry) above
Sequence of KRAS G12D (P01116 1-169 isoform P01116-2 G12D limits assumed): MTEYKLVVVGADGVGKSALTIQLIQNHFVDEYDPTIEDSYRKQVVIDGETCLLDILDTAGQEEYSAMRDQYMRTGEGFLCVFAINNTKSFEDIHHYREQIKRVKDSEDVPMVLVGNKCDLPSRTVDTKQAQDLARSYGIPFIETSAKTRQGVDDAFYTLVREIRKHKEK
Sequence of KRAS G12D (P62937 whole entry): as the sequence (P62937 whole entry) above
Sequence of NRAS G12C (P01111 whole entry G12C): as the sequence (P01111 whole entry) above, with G12C counted along it
Sequence of NRAS G12C (P62937 whole entry): as the sequence (P62937 whole entry) above

For `CCn1c(-c2cccnc2[C@H](C)OC)c2c3cc(ccc31)-c1cc(O)cc(c1)C[C@H](NC(=O)[C@H](C(C)C)N(C)C(=O)CN(C)C(=O)[C@H]1CN1CCCC#N)C(=O)N1CCC[C@H](N1)C(=O)OCC(C)(C)C2` (stereo partly drawn) [Example 273], in the assay with AsPC-1 (K-Ras G12D) [1], the EC50 was less than 5000 nM. The half-inhibitory concentration (IC50) in the assay on AsPC-1 (K-Ras G12D) [2] was 100 to 1000 nM; in the assay with NCI-H358 (K-Ras G12C) it was less than 10 nM; against KRAS G12D it was 100 to 1000 nM; at KRAS G12S, 10 to 100 nM; against KRAS G12V, 10 to 100 nM; against KRAS G13C, 10 to 100 nM. Also, the IC50 on KRAS G13D was 100 to 1000 nM; against KRAS Q61H, 10 to 100 nM; at KRAS WT, 10 to 100 nM; against NRAS G12C, less than 10 nM; against NRAS Q61K, 100 to 1000 nM; against NRAS Q61R it was 100 to 1000 nM. Further, the concentration for half-maximal inhibition (IC50) against NRAS WT was 10 to 100 nM; against KRAS G12C, less than 10 nM.
As to `CCn1c(-c2cccnc2[C@H](C)OC)c2c3cc(ccc31)-c1cc(O)cc(c1)C[C@H](NC(=O)[C@H](C(C)C)N(C)C(=O)CN(C)C(=O)[C@@H]1CN1CCCC#N)C(=O)N1CCC[C@H](N1)C(=O)OCC(C)(C)C2` (stereo partly drawn) [Example 274], the concentration for a half-maximal effect (EC50) in the assay on AsPC-1 (K-Ras G12D) [1] is less than 5000 nM. Besides, the IC50 was 100 to 1000 nM in the assay on AsPC-1 (K-Ras G12D) [2]; less than 10 nM with NCI-H358 (K-Ras G12C); 10 to 100 nM on KRAS G12D; 10 to 100 nM against KRAS G12S; 10 to 100 nM against KRAS G12V; 10 to 100 nM against KRAS G13C. In addition, the half-maximal inhibitory concentration (IC50) against KRAS G13D is 10 to 100 nM; against KRAS Q61H, 10 to 100 nM; at KRAS WT, 10 to 100 nM; on NRAS G12C, less than 10 nM; on NRAS Q61K, 100 to 1000 nM; at NRAS Q61R, 100 to 1000 nM. Moreover, the figures for the IC50 against NRAS WT and on KRAS G12C were 10 to 100 nM and less than 10 nM, respectively.
Regarding `CCn1c(-c2cccnc2[C@H](C)OC)c2c3cc(ccc31)-c1cc(O)cc(c1)C[C@H](NC(=O)[C@H](C(C)C)N(C)C(=O)CN(C)C(=O)[C@@H]1CN1C1COC1)C(=O)N1CCC[C@H](N1)C(=O)OCC(C)(C)C2` (stereo partly drawn) [Example 276], the EC50 with AsPC-1 (K-Ras G12D) [1] is less than 5000 nM. The IC50 in the assay on AsPC-1 (K-Ras G12D) [2] lay in the range of 1000 to 10000 nM; in the assay with NCI-H358 (K-Ras G12C), 10 to 100 nM; against KRAS G12D, 10 to 100 nM; at KRAS G12S it was 10 to 100 nM; on KRAS G12V, 10 to 100 nM; on KRAS G13C it was 10 to 100 nM. In addition, the IC50 on KRAS G13D was 10 to 100 nM; against KRAS Q61H it was 10 to 100 nM; against KRAS WT, 10 to 100 nM; at NRAS G12C, less than 10 nM; at NRAS Q61K it was 100 to 1000 nM; at NRAS Q61R, 100 to 1000 nM. Besides, the IC50 against NRAS WT and at KRAS G12C was 10 to 100 nM throughout.
With `CCn1c(-c2cccnc2[C@H](C)OC)c2c3cc(ccc31)-c1cc(O)cc(c1)C[C@H](NC(=O)[C@H](C(C)C)N(C)C(=O)CN(C)C(=O)[C@H]1CN1CC1COC1)C(=O)N1CCC[C@H](N1)C(=O)OCC(C)(C)C2` (stereo partly drawn) [Example 277], the concentration for a half-maximal effect (EC50) in the assay with AsPC-1 (K-Ras G12D) [1] was less than 5000 nM. Moreover, the IC50 in the assay with AsPC-1 (K-Ras G12D) [2] was 100 to 1000 nM; in the assay on NCI-H358 (K-Ras G12C), 10 to 100 nM; on KRAS G12D, 100 to 1000 nM; at KRAS G12S it was 10 to 100 nM; against KRAS G12V it was 100 to 1000 nM; at KRAS G13C it was 10 to 100 nM. Besides, the IC50 against KRAS G13D lay within 100 to 1000 nM; against KRAS Q61H, 10 to 100 nM; against KRAS WT it was 100 to 1000 nM; at NRAS G12C it was 10 to 100 nM; on NRAS Q61K, 100 to 1000 nM; against NRAS Q61R, 1000 to 10000 nM. Moreover, the IC50 against NRAS WT is 100 to 1000 nM; at KRAS G12C it was 10 to 100 nM.
For the molecule `CCn1c(-c2cccnc2[C@H](C)OC)c2c3cc(ccc31)-c1cc(O)cc(c1)C[C@H](NC(=O)[C@H](C(C)C)N(C)C(=O)CN(C)C(=O)[C@H]1CN1CC1(C)COC1)C(=O)N1CCC[C@H](N1)C(=O)OCC(C)(C)C2` (stereo partly drawn) [Example 279], the EC50 with AsPC-1 (K-Ras G12D) [1] was less than 5000 nM. In addition, the IC50 was 100 to 1000 nM with AsPC-1 (K-Ras G12D) [2]; less than 10 nM in the assay with NCI-H358 (K-Ras G12C); 100 to 1000 nM at KRAS G12D; 10 to 100 nM against KRAS G12S; 10 to 100 nM at KRAS G12V; 10 to 100 nM on KRAS G13C. Also, the IC50 against KRAS G13D is 100 to 1000 nM; against KRAS Q61H, 10 to 100 nM; at KRAS WT, 10 to 100 nM; on NRAS G12C, 10 to 100 nM; on NRAS Q61K, 100 to 1000 nM; against NRAS Q61R, 100 to 1000 nM. The 50% inhibitory concentration (IC50) on NRAS WT and on KRAS G12C was 10 to 100 nM each time.
